By Ki is commonly meant the equilibrium dissociation constant of an inhibitor or competing ligand from its target. What is called EC50 is the concentration at which the effect is half-maximal.

Assay [1] has as its target GST-Bcl-2 (Homo sapiens, UniProt P10415). In words: TR-FRET binding assay, GST-Bcl-2 with F-Bak peptide probe. To be noted: for Ki: TR-FRET Binding Affinity; for Binding selectivity ratio (Bcl-XL Ki/Bcl-2 Ki): TR-FRET, Bcl-XL Ki divided by Bcl-2 Ki. Summed up:
(§1)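 Compounds were serially diluted in DMSO from a 50 μM starting solution (2× the starting concentration; 10% DMSO). Plates were incubated for 3 h at room temperature, and TR-FRET was read with 340/35 nm excitation and emission at 520/525 nm (F-Bak) and 495/510 nm (Tb antibody). Ki values were calculated using Wang's competitive-binding equation.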
(Time-resolved FRET reads energy transfer from a long-lived donor to a nearby acceptor.)

The subject of assay [2] is FL5.12/Bcl-2 cells. The assay is described as follows: FL5.12/Bcl-2 cell viability assay under IL-3 withdrawal (CellTitre Glo). The class given is cell-based, murine. As to conditions: Mus musculus, IL-3 withdrawn 48 hrs, then 24 hrs with compound. From the text:
FL5.12 is an IL-3 dependent prolymphocytic murine cell line that undergoes apoptosis upon IL-3 withdrawal as a result of the upregulation of pro-apoptotic Bcl-2 proteins such as Bim and Puma. Stable overexpression of anti-apoptotic Bcl-2 protein (FL5.12/Bcl-2) protects against apoptosis induced by IL-3 withdrawal by sequestration of Bim and Puma. […] The ability of compounds to kill FL5.12/Bcl-2 cells upon IL-3 withdrawal is a direct measure of the compounds' ability to inhibit anti-apoptotic Bcl-2 protein function.
Wild type FL5.12/Bcl-2 overexpressing stable transfectants were cultured in RPMI-1640 supplemented with 2 mM L-glutamine, 10% FBS, 1 mM sodium pyruvate, 2 mM HEPES, 1% penicillin/streptomycin (Invitrogen), 57 μM β-ME, and 10% WEHI-3B conditioned medium (source of IL-3) and maintained at 37° C. containing 5% CO2. 1×10^6 cells/ml were washed 1×PBS and resuspended in medium not supplemented with 10% WEHI-3B for 48 hrs prior to cytotoxicity assays. Cells were then treated for an additional 24 hrs in the presence of various concentrations of the indicated compounds. Cell viability was assessed by CellTitre Glo assay (Promega Corp.) according to the manufacturer's recommendations.

Assay [3] has as its target GST-Bcl-XL (Homo sapiens, UniProt Q07817). In words: TR-FRET binding assay, GST-Bcl-XL with F-Bak peptide probe. As to conditions: TR-FRET Binding Affinity. Summed up: as §1

Sequence of GST-Bcl-XL (Q07817 whole entry): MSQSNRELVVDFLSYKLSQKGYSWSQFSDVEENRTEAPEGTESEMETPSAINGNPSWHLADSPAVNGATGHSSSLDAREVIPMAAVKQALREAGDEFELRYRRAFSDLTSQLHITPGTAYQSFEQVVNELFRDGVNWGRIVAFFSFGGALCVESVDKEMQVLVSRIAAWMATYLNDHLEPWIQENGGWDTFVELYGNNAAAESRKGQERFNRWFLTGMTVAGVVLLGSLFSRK
Sequence of GST-Bcl-2 (P10415 whole entry): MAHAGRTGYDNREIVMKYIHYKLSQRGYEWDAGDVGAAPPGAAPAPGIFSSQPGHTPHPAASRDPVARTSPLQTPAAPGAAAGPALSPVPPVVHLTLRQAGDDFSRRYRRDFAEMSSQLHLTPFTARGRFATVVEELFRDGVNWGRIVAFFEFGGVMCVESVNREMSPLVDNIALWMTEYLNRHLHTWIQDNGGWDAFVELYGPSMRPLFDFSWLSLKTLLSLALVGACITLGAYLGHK

For `O=C(NS(=O)(=O)c1ccc(NCC2CCOCC2)c([N+](=O)[O-])c1)c1ccc(N2CCN(Cc3ccccc3N3CC4CCC(CC4)C3)CC2)cc1Oc1ccccc1` [Example 474, 4-{4-[2-(3-azabicyclo[3.2.2]non-3-yl)benzyl]piperazin-1-yl}-N-({3-nitro-4-[(tetrahydro-2H-pyran-4-ylmethyl)amino]phenyl}sulfonyl)-2-phenoxybenzamide], affinity in assay [1] was put at a Ki of 8.1 nM. Also, the EC50 in assay [2] came out at 93.4 nM.
For the compound `O=C(NS(=O)(=O)c1ccc(NCC2CCOCC2)c(S(=O)(=O)C(F)(F)F)c1)c1ccc(N2CCN(Cc3ccccc3N3CC4CCC(CC4)C3)CC2)cc1Oc1ccccc1` [Example 475, 4-{4-[2-(3-azabicyclo[3.2.2]non-3-yl)benzyl]piperazin-1-yl}-2-phenoxy-N-({4-[(tetrahydro-2H-pyran-4-ylmethyl)amino]-3-[(trifluoromethyl)sulfonyl]phenyl}sulfonyl)benzamide], the EC50 in assay [2] was found to be 223 nM.
For `O=C(NS(=O)(=O)c1ccc(NCCCN2CCOCC2)c([N+](=O)[O-])c1)c1ccc(N2CCN(Cc3ccccc3N3CC4CCC(CC4)C3)CC2)cc1Oc1ccccc1` [Example 477, 4-{4-[2-(3-azabicyclo[3.2.2]non-3-yl)benzyl]piperazin-1-yl}-N-({4-[(3-morpholin-4-ylpropyl)amino]-3-nitrophenyl}sulfonyl)-2-phenoxybenzamide], the affinity in assay [1] corresponds to a Ki of 8.5 nM. Further, the EC50 in assay [2] is over 1670 nM.
Consider `O=C(NS(=O)(=O)c1ccc(NCC2CCOCC2)c([N+](=O)[O-])c1)c1ccc(N2CCN(Cc3ccccc3C3=C[C@H]4C[C@@H]3C3CCCC34)CC2)cc1Oc1ccccc1` (stereo partly drawn) [Example 478, 4-(4-{2-[(4R,7S)-2,3,3a,4,7,7a-hexahydro-1H-4,7-methanoinden-5-yl]benzyl}piperazin-1-yl)-N-({3-nitro-4-[(tetrahydro-2H-pyran-4-ylmethyl)amino]phenyl}sulfonyl)-2-phenoxybenzamide], for which the EC50 in assay [2] is over 5000 nM.
On to `CC1(C)CCC(CN2CCN(c3ccc(C(=O)NS(=O)(=O)c4ccc(NC[C@H]5CC[C@@](C)(O)CC5)c([N+](=O)[O-])c4)c(Oc4cccc5[nH]ncc45)c3)CC2)=C(c2ccc(Cl)cc2)C1` [Example 526, 4-(4-{[2-(4-chlorophenyl)-4,4-dimethylcyclohex-1-en-1-yl]methyl}piperazin-1-yl)-N-[(4-{[(cis-4-hydroxy-4-methylcyclohexyl)methyl]amino}-3-nitrophenyl)sulfonyl]-2-(1H-indazol-4-yloxy)benzamide], for which the Ki in assay [1] is under 0.01 nM; in assay [3], 4.68 nM. Moreover, the “Binding selectivity ratio (Bcl-XL Ki/Bcl-2 Ki)” value (shortened to “Binding selectivity ratio”) in assay [1] was over 467.9.
The corresponding values for `CC1(C)CCC(CN2CCN(c3ccc(C(=O)NS(=O)(=O)c4ccc(NC[C@H]5CN(C6CC6)CCO5)c([N+](=O)[O-])c4)c(Oc4cccc5[nH]nnc45)c3)CC2)=C(c2ccc(Cl)cc2)C1` [Example 527, 2-(1H-benzotriazol-4-yloxy)-4-(4-{[2-(4-chlorophenyl)-4,4-dimethylcyclohex-1-en-1-yl]methyl}piperazin-1-yl)-N-{[4-({[(2S)-4-cyclopropylmorpholin-2-yl]methyl}amino)-3-nitrophenyl]sulfonyl}benzamide] are under 0.01 nM, 4.22 nM and over 421.9.
For `CC1(C)CCC(CN2CCN(c3ccc(C(=O)NS(=O)(=O)c4cnc(OCC5(F)CCN(C6COC6)CC5)c(Cl)c4)c(Oc4cccc5[nH]ncc45)c3)CC2)=C(c2ccc(Cl)cc2)C1` [Example 528, N-[(5-chloro-6-{[4-fluoro-1-(oxetan-3-yl)piperidin-4-yl]methoxy}pyridin-3-yl)sulfonyl]-4-(4-{[2-(4-chlorophenyl)-4,4-dimethylcyclohex-1-en-1-yl]methyl}piperazin-1-yl)-2-(1H-indazol-4-yloxy)benzamide] the same measures were under 0.01 nM, 3.67 nM and over 366.9.
For `CC1(C)CCC(CN2CCN(c3ccc(C(=O)NS(=O)(=O)c4ccc(NC[C@H]5CN(C6CC6)CCO5)c([N+](=O)[O-])c4)c(Oc4cccc5[nH]ncc45)c3)CC2)=C(c2ccc(Cl)cc2)C1` [Example 529, 4-(4-{[2-(4-chlorophenyl)-4,4-dimethylcyclohex-1-en-1-yl]methyl}piperazin-1-yl)-N-{[4-({[(2S)-4-cyclopropylmorpholin-2-yl]methyl}amino)-3-nitrophenyl]sulfonyl}-2-(1H-indazol-4-yloxy)benzamide] the same measures were under 0.01 nM, 8.28 nM and over 828.4.
On to `CC1(C)CCC(CN2CCN(c3ccc(C(=O)NS(=O)(=O)c4ccc(NC[C@H]5CN(C6CC6)CCO5)c([N+](=O)[O-])c4)c(Oc4cccc5[nH]cnc45)c3)CC2)=C(c2ccc(Cl)cc2)C1` [Example 530, 2-(1H-benzimidazol-4-yloxy)-4-(4-{[2-(4-chlorophenyl)-4,4-dimethylcyclohex-1-en-1-yl]methyl}piperazin-1-yl)-N-{[4-({[(2S)-4-cyclopropylmorpholin-2-yl]methyl}amino)-3-nitrophenyl]sulfonyl}benzamide], for which, in assay [1], the Ki is under 0.01 nM and the “Binding selectivity ratio” value is listed as over 7666.0. Moreover, the Ki in assay [3] was determined as 76.7 nM.
The corresponding values for `CC1(O)CCC(COc2ncc(S(=O)(=O)NC(=O)c3ccc(N4CCN(CC5=C(c6ccc(Cl)cc6)CCC(F)(F)C5)CC4)cc3Oc3cccc4[nH]ncc34)cc2Cl)CC1` (stereo not drawn) [Example 531, N-({5-chloro-6-[(trans-4-hydroxy-4-methylcyclohexyl)methoxy]pyridin-3-yl}sulfonyl)-4-(4-{[2-(4-chlorophenyl)-5,5-difluorocyclohex-1-en-1-yl]methyl}piperazin-1-yl)-2-(1H-indazol-4-yloxy)benzamide] are under 0.01 nM, over 1257.8 and 12.6 nM.
The corresponding values for `CC1(C)CCC(CN2CCN(c3ccc(C(=O)NS(=O)(=O)c4ccc(OCC5CCC(C)(O)CC5)c([N+](=O)[O-])c4)c(Oc4cccc5[nH]ncc45)c3)CC2)=C(c2ccc(Cl)cc2)C1` (stereo not drawn) [Example 532, 4-(4-{[2-(4-chlorophenyl)-4,4-dimethylcyclohex-1-en-1-yl]methyl}piperazin-1-yl)-N-({4-[(cis-4-hydroxy-4-methylcyclohexyl)methoxy]-3-nitrophenyl}sulfonyl)-2-(1H-indazol-4-yloxy)benzamide] are under 0.01 nM, over 981.2 and 9.81 nM.
In the case of `CC1(C)CCC(CN2CCN(c3ccc(C(=O)NS(=O)(=O)c4ccc(OCC5CCC(C)(O)CC5)c([N+](=O)[O-])c4)c(Oc4cccc5[nH]ncc45)c3)CC2)=C(c2ccc(Cl)cc2)C1` (stereo not drawn) [Example 533, 4-(4-{[2-(4-chlorophenyl)-4,4-dimethylcyclohex-1-en-1-yl]methyl}piperazin-1-yl)-N-({4-[(trans-4-hydroxy-4-methylcyclohexyl)methoxy]-3-nitrophenyl}sulfonyl)-2-(H-indazol-4-yloxy)benzamide], in assay [1], the Ki was under 0.01 nM and the “Binding selectivity ratio” value is recorded as over 1044.3. For the same compound, in assay [3], the Ki was 10.4 nM.
The corresponding values for `CC1(C)CCC(CN2CCN(c3ccc(C(=O)NS(=O)(=O)c4ccc(OCC5(F)CCN(C6COC6)CC5)c(C#N)c4)c(Oc4cccc5[nH]ncc45)c3)CC2)=C(c2ccc(Cl)cc2)C1` [Example 534, 4-(4-{[2-(4-chlorophenyl)-4,4-dimethylcyclohex-1-en-1-yl]methyl}piperazin-1-yl)-N-[(3-cyano-4-{[4-fluoro-1-(oxetan-3-yl)piperidin-4-yl]methoxy}phenyl)sulfonyl]-2-(1H-indazol-4-yloxy)benzamide] are under 0.01 nM, over 4603.9 and 46 nM.
For `CC1(C)CCC(CN2CCN(c3ccc(C(=O)NS(=O)(=O)c4ccc(OCC5CCC6(CC5)COC6)c([N+](=O)[O-])c4)c(Oc4cccc5[nH]ncc45)c3)CC2)=C(c2ccc(Cl)cc2)C1` [Example 535, 4-(4-{[2-(4-chlorophenyl)-4,4-dimethylcyclohex-1-en-1-yl]methyl}piperazin-1-yl)-2-(1H-indazol-4-yloxy)-N-{[3-nitro-4-(2-oxaspiro[3.5]non-7-ylmethoxy)phenyl]sulfonyl}benzamide] the same measures were under 0.01 nM, over 250.5 and 2.5 nM.
For `CC1(C)CCC(CN2CCN(c3ccc(C(=O)NS(=O)(=O)c4cnc(OCC5CCc6nccn6C5)c(Cl)c4)c(Oc4cccc5[nH]ncc45)c3)CC2)=C(c2ccc(Cl)cc2)C1` (stereo not drawn) [Example 536, 4-(4-{[2-(4-chlorophenyl)-4,4-dimethylcyclohex-1-en-1-yl]methyl}piperazin-1-yl)-N-{[5-chloro-6-(5,6,7,8-tetrahydroimidazo[1,2-a]pyridin-6-ylmethoxy)pyridin-3-yl]sulfonyl}-2-(1H-indazol-4-yloxy)benzamide] the same measures were 0.025 nM, 886.1 and 22.2 nM.

(Values after US9073855B2, “BCL-2 selective apoptosis-inducing agents for the treatment of cancer and immune diseases” (AbbVie Inc., priority 2008, dated 2015).)
